What is called IC50 is the concentration that inhibits the measured activity by half.

Data on 1 molecule can be found in ChEMBL document CHEMBL1138728, “QSAR modelling of HIV-1 reverse transcriptase inhibition by benzoxazinones using a combination of P_VSA and pharmacophore feature descriptors” (Bioorg Med Chem Lett, 2004).

Each structure is given as a SMILES string.

The assay addresses Human immunodeficiency virus type 1 reverse transcriptase (Human immunodeficiency virus 1, UniProt Q72547). Kind of assay: Inhibitory activity against HIV-1 reverse transcriptase.

`CC(=O)Nc1ccc2c(c1)C(C#CC(C)C)(C(F)(F)F)OC(=O)N2` (stereo unspecified): the half-maximal inhibitory concentration (IC50) is less than 2000 nM.
